From PubChem BioAssay (NCI)
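Dose response: 5 concentrations. Exposure: 48 h. Format: 96-well plates. Endpoint: linear interpolation; highest concentration if not reached. GI50 marks 50% less growth. TGI is the concentration that stops growth completely.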

How the values were obtained:
Assay in all cases: DTP human tumour cell line panel, 48 h
786-0 renal = test system: 786-0 renal
A498 renal = test system: A498 renal
A549 NSCLC = test system: A549 NSCLC
ACHN renal = test system: ACHN renal
BT-549 breast = test system: BT-549 breast
CAKI-1 renal = test system: CAKI-1 renal
CCRF-CEM leukemia = test system: CCRF-CEM leukemia
DU-145 prostate = test system: DU-145 prostate
EKVX NSCLC = test system: EKVX NSCLC
HCC-2998 colon = test system: HCC-2998 colon
HCT-116 colon = test system: HCT-116 colon
HL-60(TB) leukemia = test system: HL-60(TB) leukemia
HOP-62 NSCLC = test system: HOP-62 NSCLC
HOP-92 NSCLC = test system: HOP-92 NSCLC
HS 578T breast = test system: HS 578T breast
HT29 colon = test system: HT29 colon
IGROV1 ovarian = test system: IGROV1 ovarian
KM12 colon = test system: KM12 colon
LOX IMVI melanoma = test system: LOX IMVI melanoma
MALME-3M melanoma = test system: MALME-3M melanoma
MCF7 breast = test system: MCF7 breast
MDA-MB-231 breast = test system: MDA-MB-231 breast
MDA-MB-468 breast = test system: MDA-MB-468 breast
MOLT-4 leukemia = test system: MOLT-4 leukemia
NCI-H226 lung = test system: NCI-H226 lung
NCI-H23 lung = test system: NCI-H23 lung
NCI-H460 lung = test system: NCI-H460 lung
NCI-H522 lung = test system: NCI-H522 lung
NCI/ADR-RES ovarian = test system: NCI/ADR-RES ovarian
OVCAR-3 ovarian = test system: OVCAR-3 ovarian
OVCAR-4 ovarian = test system: OVCAR-4 ovarian
OVCAR-5 ovarian = test system: OVCAR-5 ovarian
OVCAR-8 ovarian = test system: OVCAR-8 ovarian
PC-3 prostate = test system: PC-3 prostate
RXF 393 renal = test system: RXF 393 renal
SF-268 CNS = test system: SF-268 CNS
SF-295 CNS = test system: SF-295 CNS
SF-539 CNS = test system: SF-539 CNS
SK-MEL-2 melanoma = test system: SK-MEL-2 melanoma
SK-MEL-28 melanoma = test system: SK-MEL-28 melanoma
SK-MEL-5 melanoma = test system: SK-MEL-5 melanoma
SK-OV-3 ovarian = test system: SK-OV-3 ovarian
SN12C renal = test system: SN12C renal
SNB-19 CNS = test system: SNB-19 CNS
SNB-75 CNS = test system: SNB-75 CNS
SW-620 colon = test system: SW-620 colon
T-47D breast = test system: T-47D breast
TK-10 renal = test system: TK-10 renal
U251 CNS = test system: U251 CNS
UACC-257 melanoma = test system: UACC-257 melanoma
UACC-62 melanoma = test system: UACC-62 melanoma
UO-31 renal = test system: UO-31 renal

Compound: Cn1cc(-c2cc3nc(-c4cn(C)c5ncccc45)cc(N)n3n2)c2ccccc21
- GI50 (786-0 renal): 1.68 µM
- TGI (786-0 renal): 3.16 µM
- GI50 (A498 renal): 17.6 µM
- TGI (A498 renal): 37 µM
- GI50 (A549 NSCLC): 4.6 µM
- TGI (A549 NSCLC): > 100 µM
- GI50 (ACHN renal): 2.6 µM
- TGI (ACHN renal): 7.42 µM
- GI50 (BT-549 breast): 10.2 µM
- TGI (BT-549 breast): 24.3 µM
- GI50 (CAKI-1 renal): 3.74 µM
- TGI (CAKI-1 renal): 19.1 µM
- GI50 (CCRF-CEM leukemia): 2.52 µM
- TGI (CCRF-CEM leukemia): 6.49 µM
- GI50 (DU-145 prostate): 9.59 µM
- TGI (DU-145 prostate): 52.9 µM
- GI50 (EKVX NSCLC): 10.7 µM
- TGI (EKVX NSCLC): 51.3 µM
- GI50 (HCC-2998 colon): 2.26 µM
- TGI (HCC-2998 colon): 5.44 µM
- GI50 (HCT-116 colon): 2.56 µM
- TGI (HCT-116 colon): 6.9 µM
- GI50 (HL-60(TB) leukemia): 2.33 µM
- TGI (HL-60(TB) leukemia): 5.11 µM
- GI50 (HOP-62 NSCLC): 4.5 µM
- TGI (HOP-62 NSCLC): 20.7 µM
- GI50 (HOP-92 NSCLC): 2.93 µM
- TGI (HOP-92 NSCLC): 8.33 µM
- GI50 (HS 578T breast): 2.48 µM
- TGI (HS 578T breast): 8.08 µM
- GI50 (HT29 colon): 2.15 µM
- TGI (HT29 colon): 6.22 µM
- GI50 (IGROV1 ovarian): 2.84 µM
- TGI (IGROV1 ovarian): 8.11 µM
- GI50 (KM12 colon): 3.84 µM
- TGI (KM12 colon): > 100 µM
- GI50 (LOX IMVI melanoma): 2.15 µM
- TGI (LOX IMVI melanoma): 4.65 µM
- GI50 (MALME-3M melanoma): 1.86 µM
- TGI (MALME-3M melanoma): 3.3 µM
- GI50 (MCF7 breast): 3.38 µM
- TGI (MCF7 breast): 24.2 µM
- GI50 (MDA-MB-231 breast): 2.99 µM
- TGI (MDA-MB-231 breast): 9.7 µM
- GI50 (MDA-MB-468 breast): 2.43 µM
- TGI (MDA-MB-468 breast): 7.76 µM
- GI50 (MOLT-4 leukemia): 2.38 µM
- TGI (MOLT-4 leukemia): 8.9 µM
- GI50 (NCI-H226 lung): 2.7 µM
- TGI (NCI-H226 lung): 7.12 µM
- GI50 (NCI-H23 lung): 10 µM
- TGI (NCI-H23 lung): 41.2 µM
- GI50 (NCI-H460 lung): 3.75 µM
- TGI (NCI-H460 lung): 14.7 µM
- GI50 (NCI-H522 lung): 2.35 µM
- TGI (NCI-H522 lung): 5.91 µM
- GI50 (NCI/ADR-RES ovarian): 5.02 µM
- TGI (NCI/ADR-RES ovarian): 24.9 µM
- GI50 (OVCAR-3 ovarian): 3.08 µM
- TGI (OVCAR-3 ovarian): 11.4 µM
- GI50 (OVCAR-4 ovarian): 2.6 µM
- TGI (OVCAR-4 ovarian): 8.09 µM
- GI50 (OVCAR-5 ovarian): 8.81 µM
- TGI (OVCAR-5 ovarian): 98.9 µM
- GI50 (OVCAR-8 ovarian): 5.63 µM
- TGI (OVCAR-8 ovarian): > 100 µM
- GI50 (PC-3 prostate): 5.52 µM
- TGI (PC-3 prostate): 55 µM
- GI50 (RXF 393 renal): 2.01 µM
- TGI (RXF 393 renal): 4.01 µM
- GI50 (SF-268 CNS): 17.2 µM
- TGI (SF-268 CNS): > 100 µM
- GI50 (SF-295 CNS): 1.73 µM
- TGI (SF-295 CNS): 3.63 µM
- GI50 (SF-539 CNS): 1.8 µM
- TGI (SF-539 CNS): 3.71 µM
- GI50 (SK-MEL-2 melanoma): 2.17 µM
- TGI (SK-MEL-2 melanoma): 5.5 µM
- GI50 (SK-MEL-28 melanoma): 1.71 µM
- TGI (SK-MEL-28 melanoma): 3.12 µM
- GI50 (SK-MEL-5 melanoma): 3.44 µM
- TGI (SK-MEL-5 melanoma): 15.7 µM
- GI50 (SK-OV-3 ovarian): 21 µM
- TGI (SK-OV-3 ovarian): 69.3 µM
- GI50 (SN12C renal): 2.97 µM
- TGI (SN12C renal): 14.2 µM
- GI50 (SNB-19 CNS): 5.11 µM
- TGI (SNB-19 CNS): 26.7 µM
- GI50 (SNB-75 CNS): 4.97 µM
- TGI (SNB-75 CNS): 24.6 µM
- GI50 (SW-620 colon): 4.38 µM
- TGI (SW-620 colon): > 100 µM
- GI50 (T-47D breast): 5.77 µM
- TGI (T-47D breast): 74.7 µM
- GI50 (TK-10 renal): 11.6 µM
- TGI (TK-10 renal): 51.6 µM
- GI50 (U251 CNS): 3.16 µM
- TGI (U251 CNS): 21.4 µM
- GI50 (UACC-257 melanoma): 1.83 µM
- TGI (UACC-257 melanoma): 3.71 µM
- GI50 (UACC-62 melanoma): 1.73 µM
- TGI (UACC-62 melanoma): 3.34 µM
- GI50 (UO-31 renal): 4.77 µM
- TGI (UO-31 renal): 40.9 µM
